The values below come from US8114846B2, “Combined treatment with an EGFR kinase inhibitor and an agent that sensitizes tumor cells to the effects of EGFR kinase inhibitors” (OSI Pharmaceuticals, LLC, priority 2006, dated 2012).

The subject of one data set is tumor cells. The data set can be described thus: Anti-proliferative activity across tumor cell lines. Type of data set: cell-based.
A further data set relates to pAkt (S473). In words: pAkt (S473) in cancer cell lines. It is filed as cell-based.
For a further data set, the system named is H460 cells. In words: Cell proliferation (Cell Titer Glo), H460. It is filed as cell-based, human. On the procedure: (§1) The cell lines H460, Calu6, SW1573, H1703, H292, H358, HCT-116, HT-29, FET, GEO, SW480, Colo205 CBS, BxPC3, HPAC, CFPAC, MiaPaca-2, Panc1, MDA-MB-468, BT-20, MDA-MB-435 H441, H322, A1165, Igrov-1, Ovcar-3, CA-OV-3, MDAH2774, SW626, SKOV-3, Cal-27, RPMI 2650, and MDA-MB-231 were grown in media as prescribed by the ATCC, containing 10% FCS. Hsc-2, Hsc-4 and OVK-18 were obtained from the Riken Cell Bank and were cultured according to the Riken Cell Bank recommended conditions.
Background: Cellular ATP, detected with luciferase, serves as a proxy for viable cell number.

The next data set concerns three ovarian cell lines. In words: Apoptosis (Caspase 3/7 Glo), ovarian cell lines. It is filed as cell-based, human. The settings on record: 20 μM Compound A or 10 μM erlotinib. On the procedure:
as §1

Data set [1] can be described thus: Solubility limit of erlotinib. Type of data set: physicochemical.
Another data set concerns H358 cells. The settings on record: 10 μM erlotinib, 72 hours; maximal growth inhibition greater than 50% = high sensitivity.
The test system of data set [2] is phosphorylation of S6 (readout for the activity of mTOR). In words: Western blot of S6 phosphorylation in tumor cell lines. Type of data set: cell-based, human. The settings on record: 2 hours. The protocol:
Preparation of Protein Lysates and Western Blotting:
With the exception of total ErbB3 (obtained from Santa Cruz Biotechnology, Inc., Santa Cruz, Calif.), all antibodies were obtained from Cell Signaling Technology, Inc. (Danvers, Mass.). For analysis of erlotinib's effect on the phosphorylation of downstream signaling proteins, cell lines were grown to approximately 70% confluency, at which time erlotinib was added at the indicated concentration, and cells were incubated at 37° C. for two hours. Where indicated, 10 ng/ml EGF ligand was added for 5 minutes. The media was removed, cells were washed two times with PBS, and cells were lysed as previously described.

Data set [3] deals with 22 cell lines derived from NSCLC, colon, pancreatic, and breast tumors. The data set can be described thus: cells. The settings on record: Homo sapiens, read-out: IC50 value.
Description: (§2) Measurement of Cell Proliferation: Cell proliferation was determined using the Cell Titer Glo assay (Promega Corporation, Madison, Wisc.). Cell lines were seeded at a density of 3000 cells per well in a 96-well plate. 24 hours after plating cells were dosed with varying concentrations of drug, either as a single agent or in combination. The signal for Cell Titer Glo was determined 72 hours after dosing.
(§3) Analysis of Additivity and Synergy: The Bliss additivism model was used to classify the effect of combining rapamycin and erlotinib as additive, synergistic, or antagonistic. A theoretical curve was calculated for combined inhibition using the equation: Ebliss=EA+EB−EA*EB, where EA and EB are the fractional inhibitions obtained by drug A alone and drug B alone at specific concentrations. […] If the experimentally measured fractional inhibition is less than Ebliss the combination was said to be synergistic. If the experimentally measured fractional inhibition is greater than Ebliss the combination was said to be antagonistic. For dose response curves, the Bliss additivity value was calculated for varying doses of drug A when combined with a constant dose of drug B. This allowed an assessment as to whether drug B affected the potency of drug A or shifted its intrinsic activity. All plots were generated using PRISM® software (Graphpad Software, San Diego, Calif.).
The subject of the next data set is Calu6 cells. The settings on record: 10 μM erlotinib, 72 hours; maximal growth inhibition greater than 50% = high sensitivity.
Another data set relates to Calu-6 NSCLC tumor cells. In words: Calu6 xenograft model. It is filed as in vivo, mice. The settings on record: day 19; Tarceva 100 mg/kg daily oral, or rapamycin 4 mg/kg i.p. day 1, 8, 15. From the text: Female CD-1 nu/nu mice (Charles River Laboratories, Wilmington, Mass.) were implanted with harvested Calu-6 NSCLC tumor cells in a single subcutaneous site on the flank of the mice in the axillary region. Tumors were allowed to grow to 200+50 mm^3, at which time the animals were sorted into treatment groups (see below) of 8 animals per group, having approximately equal body weight (+/−1 g) within a group, and tattooed on the tail for permanent identification. Tumor volumes and body weights were determined twice weekly. The tumor volume was determined by measuring in two directions with vernier calipers and calculated using the formula: Tumor volume=(length×width^2)/2. The data were plotted as the % change in mean values of tumor volume and body weight for each group. The tumor growth inhibition (% TGI) was determined as % TGI=100(1−Wt/Wc): where Wt is the median tumor volume of the treated group at time x and We is the median tumor volume of the control group at time x. Tarceva was dosed in a 6% Captisol (CyDex, Inc) in WFI (Water for Injection) solution and all control animals were dosed with an equal volume of the vehicle. Tarceva animals were dosed by oral gavage once a day for 18 days and the % TGI measured on day 19. Rapamycin was dosed in 4% ethanol/5% PEG400/5% Tween 80 in WFI. […]

Another data set deals with HCT-116 cells. The settings on record: 10 μM erlotinib, 72 hours; maximal growth inhibition greater than 50% = high sensitivity.
Another data set has as its system BxPC3 cells. In words: Cell proliferation (Cell Titer Glo), BxPC3. It is filed as cell-based, human. The settings on record: 10 μM erlotinib, 72 hours; maximal growth inhibition greater than 50% = high sensitivity. The protocol: as §1
In a further data set the test system is H292 cells. In words: Cell proliferation (Cell Titer Glo), H292. It is filed as cell-based, human. The settings on record: 10 μM erlotinib, 72 hours; maximal growth inhibition greater than 50% = high sensitivity. On the procedure: as §1
Data set [4] relates to one ovarian and one HNSCC cell line. The data set can be described thus: Apoptosis (Caspase 3/7 Glo), one ovarian and one HNSCC cell line. It is filed as cell-based, human. On the procedure:
as §1

In brackets after ≈: the same amount, converted by molar mass. Entries after “also recorded” stand apart in the source; their conditions may differ.

Description for Calu6 cells: as §2, §3
Description for H358 cells: as §2, §3
Description for HCT-116 cells: as §2, §3

Consider `CO[C@H]1C[C@@H]2CC[C@@H](C)[C@@](O)(O2)C(=O)C(=O)N2CCCC[C@H]2C(=O)O[C@H]([C@H](C)C[C@@H]2CC[C@@H](O)[C@H](OC)C2)CC(=O)[C@H](C)/C=C(\C)[C@@H](O)[C@@H](OC)C(=O)[C@H](C)C[C@H](C)/C=C/C=C/C=C/1C` [rapamycin], for which the “cell lines in a given tumor type that are insensitive” value in the data set on tumor cells is listed as “approximately 50%”. Also, in the data set on pAkt (S473), the “cancer cell lines in which pAkt (S473) is inhibited” value was about 20% and the “cell lines in which treatment increases pAkt (S473)” value is about 65%. In addition, the Emax with H460 cells (Homo sapiens, NCI-H460, rapamycin without erlotinib, read-out: maximal efficacy (growth inhibition)) is 34%. For the same molecule, in the data set with H460 cells (Homo sapiens, NCI-H460, rapamycin without erlotinib, read-out: potency (growth inhibition)), the IC50 worked out at 0.267 nM.

The term solubility denotes the dissolved amount per volume that the medium holds. With `C#Cc1cccc(Nc2ncnc3cc(OCCOC)c(OCCOC)cc23)c1` [erlotinib, [6,7-bis(2-methoxyethoxy)-4-quinazolin-4-yl]-(3-ethynylphenyl) amine], the “apoptosis relative to DMSO treated cells, single agent” value in the data set with three ovarian cell lines is “increased apoptosis”; in data set [4] it was “modest increase”. Further, the solubility in data set [1] stood at 10 µM (≈ 3.93 µg/mL). The “sensitivity to growth inhibition by erlotinib” value with H358 cells was “most sensitive”; in the data set with H460 cells (10 μM erlotinib, 72 hours, maximal growth inhibition greater than 50% = high sensitivity) it was “relatively insensitive”; with Calu6 cells, “relatively insensitive”; in the data set with HCT-116 cells, “relatively insensitive”; in the data set on BxPC3 cells it was “most sensitive”; with H292 cells, “most sensitive”. The “down-regulation of phosphorylation of S6” value in data set [2] (relatively insensitive cell lines that have undergone EMT (H460, Calu6, HCT-116)) was “less pronounced down-regulation”; in [2] (three sensitive epithelial cell lines (H292, H358, BxPC3)), “efficiently down-regulate”. The IC50 in data set [3] was over 10 µM. Also, the “reduction in tumor growth as single agent” value in the data set on Calu-6 NSCLC tumor cells is “no statistically significant reduction; also recorded: Neither rapamycin or erlotinib showed significant reduction”.
